For five molecules, MIC results are on record in ChEMBL document CHEMBL1649576, “Emergence of extended-spectrum beta-lactamase PER-1 in Proteus vulgaris and Providencia stuartii isolates from Algiers, Algeria” (2009).

Format in all cases: functional
For assay [1], the system named is Escherichia coli. Put plainly: Antimicrobial activity against rifampin-resistant Escherichia coli J53 transconjugated with Proteus vulgaris Pv7 expressing beta-lactamase PER-1 by Etest.
Assay [2] relates to Escherichia coli. The experiment in a line: Antimicrobial activity against rifampin-resistant Escherichia coli J53 transconjugated with Proteus vulgaris Pv9 expressing beta-lactamase PER-1 by […].
Assay [3] deals with Escherichia coli. Put plainly: Antimicrobial activity against rifampin-resistant Escherichia coli J53 transconjugated with Proteus vulgaris Pv8 expressing beta-lactamase PER-1 by Etest.
The subject of assay [4] is Escherichia coli. Put plainly: Antimicrobial activity against rifampin-resistant Escherichia coli J53 transconjugated with Proteus vulgaris Pv5 expressing beta-lactamase PER-1 by Etest.
Assay [5] concerns Proteus vulgaris. Put plainly: Antimicrobial activity against Proteus vulgaris Pv7 expressing beta-lactamase PER-1 by […].
Assay [6] has as its system Escherichia coli. The experiment in a line: Antimicrobial activity against rifampin-resistant Escherichia coli J53 transconjugated with Providencia stuartii Ps5 expressing beta-lactamase PER-1 by […]. (In general: A growth-free zone around the sample is the usual read-out of agar diffusion tests.)
Assay [7] deals with Escherichia coli. The experiment in a line: Antimicrobial activity against rifampin-resistant Escherichia coli J53 transconjugated with Proteus vulgaris Pv8 expressing beta-lactamase PER-1 by […].
Assay [8] concerns Providencia stuartii. Put plainly: Antimicrobial activity against Providencia stuartii Ps5 expressing beta-lactamase PER-1 by Etest.
The subject of assay [9] is Escherichia coli. Put plainly: Antimicrobial activity against rifampin-resistant Escherichia coli J53 transconjugated with Proteus vulgaris Pv5 expressing beta-lactamase PER-1 by […].
For assay [10], the system named is Escherichia coli. Put plainly: Antimicrobial activity against rifampin-resistant Escherichia coli J53 transconjugated with Providencia stuartii Ps5 expressing beta-lactamase PER-1 by Etest.
Assay [11] relates to Proteus vulgaris. The experiment in a line: Antimicrobial activity against Proteus vulgaris Pv5 expressing beta-lactamase PER-1 by Etest.
Assay [12] relates to Escherichia coli. The experiment in a line: Antimicrobial activity against rifampin-resistant Escherichia coli J53 transconjugated with Proteus vulgaris Pv7 expressing beta-lactamase PER-1 by […].
The test system of assay [13] is Providencia stuartii. Put plainly: Antimicrobial activity against Providencia stuartii Ps5 expressing beta-lactamase PER-1 by […].
For assay [14], the system named is Proteus vulgaris. The experiment in a line: Antimicrobial activity against Proteus vulgaris Pv8 expressing beta-lactamase PER-1 by […].
The test system of assay [15] is Escherichia coli. Put plainly: Antimicrobial activity against rifampin-resistant Escherichia coli J53 transconjugated with Proteus vulgaris Pv9 expressing beta-lactamase PER-1 by Etest.
Assay [16] concerns Proteus vulgaris. Put plainly: Antimicrobial activity against Proteus vulgaris Pv8 expressing beta-lactamase PER-1 by Etest.
In assay [17] the test system is Proteus vulgaris. The experiment in a line: Antimicrobial activity against Proteus vulgaris Pv7 expressing beta-lactamase PER-1 by Etest.
For assay [18], the system named is Proteus vulgaris. Put plainly: Antimicrobial activity against Proteus vulgaris Pv9 expressing beta-lactamase PER-1 by Etest.
Assay [19] deals with Proteus vulgaris. Put plainly: Antimicrobial activity against Proteus vulgaris Pv5 expressing beta-lactamase PER-1 by […].
The test system of assay [20] is Proteus vulgaris. The experiment in a line: Antimicrobial activity against Proteus vulgaris Pv9 expressing beta-lactamase PER-1 by […].

Converted amounts (≈) assume the structure as drawn. Bounds are passed on as bounds.

The MIC is the smallest concentration in the dilution series that meets the test's criterion for growth inhibition. Read a low MIC as a more susceptible organism. Take `C[C@@H](O)[C@H]1C(=O)N2C(C(=O)O)=C(SCCNC=N)C[C@H]12` [IMIPENEM ANHYDROUS]: the MIC in the assay on Escherichia coli [1] was 0.125 µg/mL (≈ 0.418 µM); against Escherichia coli [2], 0.25 µg/mL (≈ 0.835 µM); in the assay on Escherichia coli [3], 0.125 µg/mL (≈ 0.418 µM); in the assay on Escherichia coli [4], 0.25 µg/mL (≈ 0.835 µM); against Proteus vulgaris [5], 1 µg/mL (≈ 3.34 µM); against Escherichia coli [6], 0.125 µg/mL (≈ 0.418 µM). Also, the minimal inhibitory concentration (MIC) worked out at 0.125 µg/mL (≈ 0.418 µM) in the assay on Escherichia coli [7]; 2 µg/mL (≈ 6.68 µM) against Providencia stuartii [8]; 0.25 µg/mL (≈ 0.835 µM) in the assay with Escherichia coli [9]; 0.125 µg/mL (≈ 0.418 µM) with Escherichia coli [10]; 1 µg/mL (≈ 3.34 µM) against Proteus vulgaris [11]; 0.125 µg/mL (≈ 0.418 µM) against Escherichia coli [12]. Moreover, the MIC came out at 2 µg/mL (≈ 6.68 µM) in the assay on Providencia stuartii [13]; 1 µg/mL (≈ 3.34 µM) in the assay with Proteus vulgaris [14]; 0.25 µg/mL (≈ 0.835 µM) with Escherichia coli [15]; 1 µg/mL (≈ 3.34 µM) in the assay on Proteus vulgaris [16]; 1 µg/mL (≈ 3.34 µM) against Proteus vulgaris [17]; 1 µg/mL (≈ 3.34 µM) against Proteus vulgaris [18]. Further, the MIC against Proteus vulgaris [19] and against Proteus vulgaris [20] was 1 µg/mL (≈ 3.34 µM) throughout.

For `CC(C)(O/N=C(\C(=O)N[C@@H]1C(=O)N2C(C(=O)[O-])=C(C[n+]3ccccc3)CS[C@H]12)c1csc(N)n1)C(=O)O` [CEFTAZIDIME], the MIC in the assay with Escherichia coli [1], against Escherichia coli [2], in the assay on Escherichia coli [3], against Escherichia coli [4], in the assay with Proteus vulgaris [5] and against Escherichia coli [6] was over 256 µg/mL in each case. Further, the MIC with Escherichia coli [7], in the assay on Providencia stuartii [8], against Escherichia coli [9], in the assay on Escherichia coli [10], in the assay with Proteus vulgaris [11] and against Escherichia coli [12] was over 256 µg/mL each time. In addition, the minimum inhibitory concentration (MIC) in the assay with Providencia stuartii [13], in the assay on Proteus vulgaris [14], in the assay with Escherichia coli [15], against Proteus vulgaris [16], in the assay with Proteus vulgaris [17] and against Proteus vulgaris [18] was over 256 µg/mL each time. Further, the MIC against Proteus vulgaris [19] and in the assay with Proteus vulgaris [20] was over 256 µg/mL in each case.

As to `CCN1CCN(C(=O)N[C@@H](C(=O)N[C@@H]2C(=O)N3[C@@H]2SC(C)(C)[C@@H]3C(=O)O)c2ccccc2)C(=O)C1=O` [PIPERACILLIN], the MIC with Escherichia coli [1] was 32 µg/mL (≈ 61.8 µM); against Escherichia coli [2], 32 µg/mL (≈ 61.8 µM); in the assay with Escherichia coli [3], 16 µg/mL (≈ 30.9 µM); against Escherichia coli [4], 16 µg/mL (≈ 30.9 µM); with Proteus vulgaris [5], 32 µg/mL (≈ 61.8 µM); against Escherichia coli [6], 32 µg/mL (≈ 61.8 µM). Further, the MIC in the assay with Escherichia coli [7] was 16 µg/mL (≈ 30.9 µM); with Providencia stuartii [8], 32 µg/mL (≈ 61.8 µM); with Escherichia coli [9], 16 µg/mL (≈ 30.9 µM); with Escherichia coli [10], 32 µg/mL (≈ 61.8 µM); against Proteus vulgaris [11], 16 µg/mL (≈ 30.9 µM); against Escherichia coli [12], 32 µg/mL (≈ 61.8 µM). Besides, the MIC with Providencia stuartii [13] turned out to be 32 µg/mL (≈ 61.8 µM); against Proteus vulgaris [14] it was 16 µg/mL (≈ 30.9 µM); with Escherichia coli [15], 32 µg/mL (≈ 61.8 µM); against Proteus vulgaris [16] it was 16 µg/mL (≈ 30.9 µM); in the assay with Proteus vulgaris [17] it was 32 µg/mL (≈ 61.8 µM); in the assay on Proteus vulgaris [18], 32 µg/mL (≈ 61.8 µM). Also, the MIC was 16 µg/mL (≈ 30.9 µM) against Proteus vulgaris [19] and 32 µg/mL (≈ 61.8 µM) with Proteus vulgaris [20].

Consider `CO/N=C(\C(=O)N[C@@H]1C(=O)N2C(C(=O)[O-])=C(C[N+]3(C)CCCC3)CS[C@H]12)c1csc(N)n1` [CEFEPIME], for which the MIC against Escherichia coli [2] worked out at 8 µg/mL (≈ 16.6 µM); with Escherichia coli [3], 8 µg/mL (≈ 16.6 µM); against Escherichia coli [4], 16 µg/mL (≈ 33.3 µM); with Proteus vulgaris [5], 16 µg/mL (≈ 33.3 µM); with Escherichia coli [7] it was 8 µg/mL (≈ 16.6 µM); with Providencia stuartii [8] it was 8 µg/mL (≈ 16.6 µM). The MIC in the assay with Escherichia coli [9] turned out to be 16 µg/mL (≈ 33.3 µM); in the assay with Proteus vulgaris [11], 32 µg/mL (≈ 66.6 µM); in the assay on Providencia stuartii [13], 8 µg/mL (≈ 16.6 µM); with Proteus vulgaris [14], 32 µg/mL (≈ 66.6 µM); against Escherichia coli [15], 8 µg/mL (≈ 16.6 µM); in the assay with Proteus vulgaris [16], 32 µg/mL (≈ 66.6 µM). Also, the MIC is 16 µg/mL (≈ 33.3 µM) in the assay with Proteus vulgaris [17], 8 µg/mL (≈ 16.6 µM) against Proteus vulgaris [18], 32 µg/mL (≈ 66.6 µM) against Proteus vulgaris [19] and 8 µg/mL (≈ 16.6 µM) against Proteus vulgaris [20].

On to `CO/N=C(\C(=O)N[C@@H]1C(=O)N2C(C(=O)O)=C(COC(C)=O)CS[C@H]12)c1csc(N)n1` [CEFOTAXIME], for which the MIC in the assay with Escherichia coli [1] is 31 µg/mL (≈ 68.1 µM); against Escherichia coli [2], 32 µg/mL (≈ 70.3 µM); with Escherichia coli [3], 16 µg/mL (≈ 35.1 µM); in the assay with Escherichia coli [4] it was 32 µg/mL (≈ 70.3 µM); against Proteus vulgaris [5] it was 32 µg/mL (≈ 70.3 µM); in the assay on Escherichia coli [6], 32 µg/mL (≈ 70.3 µM). Also, the MIC was determined as 16 µg/mL (≈ 35.1 µM) in the assay with Escherichia coli [7]; 32 µg/mL (≈ 70.3 µM) against Providencia stuartii [8]; 32 µg/mL (≈ 70.3 µM) in the assay on Escherichia coli [9]; 32 µg/mL (≈ 70.3 µM) in the assay on Escherichia coli [10]; 32 µg/mL (≈ 70.3 µM) in the assay with Proteus vulgaris [11]; 32 µg/mL (≈ 70.3 µM) against Escherichia coli [12]. Also, the minimal inhibitory concentration (MIC) in the assay with Providencia stuartii [13], against Proteus vulgaris [14], against Escherichia coli [15], with Proteus vulgaris [16], in the assay on Proteus vulgaris [17] and against Proteus vulgaris [18] was 32 µg/mL (≈ 70.3 µM) each time. Moreover, the MIC with Proteus vulgaris [19] and with Proteus vulgaris [20] was 32 µg/mL (≈ 70.3 µM) in each case.
